Patent US12448369B2 (Edgewise Therapeutics, Inc., priority 2023, dated 2025)

Experiments:
[1] = system: Rabbit Psoas myofibrils (skeletal myosin ATPase); experiment: Myofibril ATPase assay, rabbit psoas (skeletal) myofibrils; type: biochemical; settings: rabbit psoas myofibrils
How it was run: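 Readout: A340 decline from NADH oxidation, PK/LDH-coupled to ADP release; kinetic reads over 75 min. Buffer: pCa (PIPES, CaCl2, EGTA), pH 7.0. Linear-regression slopes vs vehicle, 4PL fit; reported as concentration giving 75% (Y75) or 125% (Y125) of vehicle activity.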

[2] = target: T1, Porcine ventricle myofibrils (ventricular myosin ATPase) (Sus scrofa, UniProt P79293); experiment: Myofibril ATPase assay, porcine ventricle myofibrils; type: biochemical, porcine (Yucatan minipigs); settings: porcine ventricle myofibrils
T1 construct: Myofibrils from porcine cardiac muscle was isolated from the left ventricle of Yucatan minipigs; tissue Exemplar Genetics; host or cells: left ventricle of Yucatan minipigs, myofibrils prepared in house
How it was run: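 Read-out: A340 kinetic, NADH consumption coupled to ADP via PK-LDH, 75 min. Yucatan minipig LV myofibrils, pCa buffer (PIPES/CaCl2/EGTA, pH 7.0). Linear-regression slope (mAU/min), vehicle = 100%, 4PL fit; Y75 or Y125 reported.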

[3] = system: Porcine atria myofibrils (atrial myosin ATPase); experiment: Myofibril ATPase assay, porcine atria myofibrils; type: biochemical; settings: porcine atria myofibrils
How it was run: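 Coupled PK-LDH readout, NADH loss at 340 nm, kinetic 75 min. Porcine atria myofibrils, pCa buffer (PIPES/CaCl2/EGTA, pH 7.0). Slopes (mAU/min) normalized to vehicle = 100%, 4-parameter fit; Y75 or Y125 reported.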

[4] = Y75 value (75% activity relative to no compound)
[5] = ‡ Y125 value, not a Y75 value (125% activity relative to no compound)

T1 sequence (P79293 whole entry): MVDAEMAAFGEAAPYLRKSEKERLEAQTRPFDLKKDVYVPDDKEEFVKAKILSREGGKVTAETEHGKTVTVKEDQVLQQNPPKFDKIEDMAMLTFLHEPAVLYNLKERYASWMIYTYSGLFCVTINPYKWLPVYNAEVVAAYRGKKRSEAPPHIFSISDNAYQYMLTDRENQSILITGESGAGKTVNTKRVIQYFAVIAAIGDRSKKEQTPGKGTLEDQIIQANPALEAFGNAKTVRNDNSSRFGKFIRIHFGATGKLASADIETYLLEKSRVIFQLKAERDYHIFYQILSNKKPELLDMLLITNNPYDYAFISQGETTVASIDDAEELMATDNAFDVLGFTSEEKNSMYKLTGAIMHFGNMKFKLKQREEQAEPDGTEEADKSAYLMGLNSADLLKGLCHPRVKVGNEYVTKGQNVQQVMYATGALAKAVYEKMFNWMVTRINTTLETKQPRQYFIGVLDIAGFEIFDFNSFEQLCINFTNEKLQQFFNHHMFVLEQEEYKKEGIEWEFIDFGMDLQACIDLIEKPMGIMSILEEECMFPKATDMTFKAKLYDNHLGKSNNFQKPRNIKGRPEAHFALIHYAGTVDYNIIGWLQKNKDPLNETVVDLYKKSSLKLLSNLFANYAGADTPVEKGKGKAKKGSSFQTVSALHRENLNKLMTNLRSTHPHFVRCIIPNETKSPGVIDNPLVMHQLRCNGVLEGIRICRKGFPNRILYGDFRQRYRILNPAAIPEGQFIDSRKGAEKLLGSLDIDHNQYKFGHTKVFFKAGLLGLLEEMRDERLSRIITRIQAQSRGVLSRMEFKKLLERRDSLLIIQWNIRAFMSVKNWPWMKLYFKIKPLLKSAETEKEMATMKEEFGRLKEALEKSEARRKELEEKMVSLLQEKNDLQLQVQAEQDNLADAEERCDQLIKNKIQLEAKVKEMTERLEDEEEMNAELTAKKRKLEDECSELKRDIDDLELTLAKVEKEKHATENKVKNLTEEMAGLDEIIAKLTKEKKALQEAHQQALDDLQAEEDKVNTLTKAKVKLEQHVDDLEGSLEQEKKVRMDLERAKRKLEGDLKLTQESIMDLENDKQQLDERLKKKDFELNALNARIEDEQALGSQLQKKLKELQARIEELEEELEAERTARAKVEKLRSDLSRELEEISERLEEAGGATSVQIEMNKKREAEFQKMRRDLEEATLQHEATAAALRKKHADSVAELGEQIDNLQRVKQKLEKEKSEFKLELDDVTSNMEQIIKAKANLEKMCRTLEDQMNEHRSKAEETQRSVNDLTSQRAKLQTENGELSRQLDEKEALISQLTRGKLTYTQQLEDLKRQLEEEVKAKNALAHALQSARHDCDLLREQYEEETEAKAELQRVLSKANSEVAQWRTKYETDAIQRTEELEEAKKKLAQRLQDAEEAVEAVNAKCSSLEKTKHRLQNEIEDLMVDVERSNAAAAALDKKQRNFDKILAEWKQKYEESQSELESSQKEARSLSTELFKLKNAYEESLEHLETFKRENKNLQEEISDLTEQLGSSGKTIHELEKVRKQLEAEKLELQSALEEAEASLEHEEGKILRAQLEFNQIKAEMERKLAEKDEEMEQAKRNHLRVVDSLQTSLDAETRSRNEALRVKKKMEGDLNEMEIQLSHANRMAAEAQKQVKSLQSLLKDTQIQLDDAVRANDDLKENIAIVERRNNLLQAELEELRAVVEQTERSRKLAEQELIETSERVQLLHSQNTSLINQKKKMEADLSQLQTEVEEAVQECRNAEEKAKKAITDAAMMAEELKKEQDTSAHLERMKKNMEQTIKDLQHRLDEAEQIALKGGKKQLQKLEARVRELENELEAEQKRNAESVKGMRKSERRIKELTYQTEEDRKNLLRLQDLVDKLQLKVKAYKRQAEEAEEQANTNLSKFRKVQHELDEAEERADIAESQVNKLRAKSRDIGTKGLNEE

Skeletal EC25 ([1]; Y75 value (no ‡ mark)) [µM] | Ventricular EC25 ([2]; Y75 value (no ‡ mark)) [µM] | Atrial EC25 ([3]; Y75 value (no ‡ mark)) [nM] | Skeletal EC25 ([1]; Y75 value) [µM] | Ventricular EC25 ([2]; Y75 value) [µM] | Atrial EC25 [3, 4] [nM] | Skeletal EC25 [1, 5] | Ventricular EC25 [2, 5] | Compound
 |  |  | 100.00 | 100.00 | 100000 |  |  | Cc1ccc([C@@H](C)NC(=O)Cc2c(C)c3c(C)nccc3[nH]c2=O)cc1 (single isomer, unassigned) [compound 301]
0.29 | 100.00 | 1500 |  |  |  |  |  | Cc1cc([C@H](C)NC(=O)Cc2c(C)c3c(C)c(F)ccc3[nH]c2=O)ncc1F (single isomer, unassigned) [compound 2077]
2.90 | 5.94 | 590 |  |  |  |  |  | Cc1cc(C#N)nnc1[C@@H](C)NC(=O)Cc1c(C)c2c(F)c(F)ccc2[nH]c1=O [compound 1135]
 |  |  | 100.00 | 100.00 | 100000 |  |  | Cc1c(CC(=O)N[C@@H](C)c2ccc(F)cc2F)c(=O)[nH]c2cnnc(O)c12 [compound 240]
 |  |  | 0.11 | 2.97 | 300 |  |  | Cc1nccc2[nH]c(=O)c([C@@H](C)C(=O)N[C@@H](C)c3ccc(C#N)cc3F)c(C)c12 (single isomer, unassigned) [compound 195]
 |  |  | 0.03 | 0.59 | 40 |  |  | COc1ccc2[nH]c(=O)c(CC(=O)N[C@@H](C)c3ccc(F)cc3F)c(C)c2n1 [compound 409]
0.37 | 1.44 | 6470 |  |  |  |  |  | Cc1c(CC(=O)N[C@H](C)c2cnc(C#N)cn2)c(=O)[nH]c2ccc(F)cc12 [compound 1108]
 |  |  | 100.00 | 100.00 | 100000 |  |  | Cc1nccc2[nH]c(=O)c(CC(=O)NC[C@H](CO)c3ccccc3)c(C)c12 [compound 493]
0.65 | 0.92 | 3290 |  |  |  |  |  | Cc1c(CC(=O)N[C@H](C)c2ncc(F)cc2F)c(=O)[nH]c2ccc(F)c(C(F)(F)F)c12 [compound 9]
0.01 | 0.13 | 40 |  |  |  |  |  | Cc1c(CC(=O)N[C@@H](C)c2ccc(F)cc2F)c(=O)[nH]c2ccc(F)c(Br)c12 [compound 109]
 |  |  | 0.57 | 2.73 | 290 |  |  | Cc1c(CC(=O)N[C@@H](CO)c2ncc(F)cc2F)c(=O)[nH]c2ccnc(C(F)(F)F)c12 [compound 264]
 |  |  | 5.72 | 100.00 | 100000 |  |  | Cc1nccc2[nH]c(=O)c(CC(=O)N[C@@H]3CCc4cc(C#N)cnc43)c(C)c12 (single isomer, unassigned) [compound 233]
 |  |  | 0.02 | 0.33 | 100 |  |  | Cc1cc(F)ccc1[C@H](C)NC(=O)Cc1c(C)c2c(C)nccc2[nH]c1=O [compound 407]
0.04 | 0.32 | 50 |  |  |  |  |  | Cc1c(CC(=O)N[C@H](CO)c2ccc(F)cc2F)c(=O)[nH]c2cccc(C#N)c12 (single isomer, unassigned) [compound 89]
 |  |  | 100.00 | 100.00 | 100000 |  |  | Cc1nccc2[nH]c(=O)c(CC(=O)N[C@H](C)c3cccnc3O)c(C)c12 (single isomer, unassigned) [compound 302]
 |  |  | 0.09 | 1.94 | 1350 |  |  | C[C@H](NC(=O)Cc1c(C(F)(F)F)c2c(Cl)nccc2[nH]c1=O)c1ccc(F)cc1F [compound 428]

The remaining lines, values behind:

Compound | Skeletal EC25 ([1]; Y75 value (no ‡ mark)) [µM] | Ventricular EC25 ([2]; Y75 value (no ‡ mark)) [µM] | Atrial EC25 ([3]; Y75 value (no ‡ mark)) [nM] | Skeletal EC25 ([1]; Y75 value) [µM] | Ventricular EC25 ([2]; Y75 value) [µM] | Atrial EC25 [3, 4] [nM] | Skeletal EC25 [1, 5] | Ventricular EC25 [2, 5]
C[C@@H](NC(=O)Cc1cc2c(F)cc(F)cc2[nH]c1=O)c1ncc(C#N)cc1F [compound 1137] | 5.34 | 2.51 | 5320 |  |  |  |  | 
Cc1c(CC(=O)N[C@H]2COc3cc(F)cc(F)c32)c(=O)[nH]c2ccnc(C#N)c12 (single isomer, unassigned) [compound 274] |  |  |  | 0.02 | 0.13 | 40 |  | 
C[C@H](NC(=O)Cc1c(C2CC2)c2c(F)c(F)ccc2[nH]c1=O)c1ccc(C#N)nn1 (single isomer, unassigned) [compound 2066] | 0.15 | 7.88 | 1060 |  |  |  |  | 
COc1nccc2[nH]c(=O)c(CC(=O)N[C@@H](C)c3ncc(C#N)cc3F)c(C(F)(F)F)c12 (single isomer, unassigned) [compound 3010] |  |  |  | 0.63 | 3.57 | 700 |  | 
Cc1nnccc1C(C)NC(=O)Cc1cc2cc(F)c(F)cc2[nH]c1=O (stereo not drawn) [compound 2073] | 100.00 | 100.00 | 100000 |  |  |  |  | 
C[C@@H](NC(=O)Cc1c(C2CC2)c2cc(F)ccc2[nH]c1=O)c1ccc(C#N)cn1 [compound 55] | 1.20 | 100.00 | 1290 |  |  |  |  | 
Cc1c(C2(C(=O)N[C@H](C)c3ncc(C#N)cn3)CC2)c(=O)[nH]c2cccc(C#N)c12 (single isomer, unassigned) [compound 2543] | 0.83 | 4.00 | 730 |  |  |  |  | 
C[C@@H](NC(=O)C1(c2cc3cc(F)ccc3[nH]c2=O)CC1)c1cccc(C#N)n1 (single isomer, unassigned) [compound 2534] |  | 100.00 | 15930 |  |  |  | 37.90‡ μM | 
Cc1c(C(F)(F)C(=O)N[C@H](C)c2cc(C#N)ccn2)c(=O)[nH]c2ccc(F)c(F)c12 (single isomer, unassigned) [compound 2585] | 3.04 | 7.05 | 1590 |  |  |  |  | 
Cc1nccc2[nH]c(=O)c([C@@H](C)C(=O)N[C@@H](C)c3ccc(F)cc3F)c(C(F)(F)F)c12 (single isomer, unassigned) [compound 410] |  |  |  | 0.76 | 100.00 | 5460 |  | 
C[C@@H](NC(=O)C(F)(F)c1cc2cc(F)ccc2[nH]c1=O)c1nccc(C#N)n1 (single isomer, unassigned) [compound 2559] | 100.00 | 100.00 | 100000 |  |  |  |  | 
C[C@@H](NC(=O)Cc1cc2c(F)c(F)ccc2[nH]c1=O)c1ccc(C#N)cn1 [compound 17] | 0.43 | 1.56 | 90 |  |  |  |  | 
O=C(Cc1cc2cc(F)ccc2[nH]c1=O)N1CC[C@H]2C[C@@H]1c1ccccc12 (single isomer, unassigned) [compound 4502] | 0.50 | 0.63 | 1280 |  |  |  |  | 
Cc1c(C(F)(F)C(=O)N[C@@H](C)c2cccc(C#N)n2)c(=O)[nH]c2ccc(F)cc12 (single isomer, unassigned) [compound 2566] |  |  | 100000 |  |  |  | 100.00‡ μM | 100.00‡ μM
C[C@H](NC(=O)Cc1cc2nc(C(F)(F)F)ccc2[nH]c1=O)c1ccc(F)cc1F [compound 397] |  |  |  | 1.87 | 32.40 | 100000 |  | 
N#Cc1cnc2c(n1)CC[C@@H]2NC(=O)Cc1cc2cc(F)c(F)cc2[nH]c1=O [compound 1083] | 4.15 | 100.00 | 5800 |  |  |  |  | 
